What was measured:
[1] = system: panel of 30 multi-resistant clinical isolates of Gram-positive and Gram-negative bacteria; test: MIC screening, ranges over the panel of clinical isolates; format: cell-based; details: Enterococcus faecium, read-out: MIC values against the Gram-positive isolates of S. aurues and E. faecium
Description: (§1) Working solutions of the test derivatives were prepared with up to 100% DMSO and stored at −20° C. If necessary, the solutions were heated to 40-80° C. before testing to facilitate complete dissolution. Double-distilled water was used in all dilutions prepared. […] A microdilution susceptibility test was used for MIC determination according to Clinical and Laboratory Standards Institute, “Methods for Dilution Antimicrobial Sisceptibility Tests for Bacteria That Graw Aerobically”, Approved Standard M07-A9, edition 2012, with modifications as described by Igumnova et al (Bioorg Med Chem, 2016, 24 (22), 5884-5894).
(§2) Briefly, the bacterial inoculum was adjusted to approximately 2.5-3×10^4 cells/mL in Mueller-Hinton broth (MHB, Difco Laboratories, USA), and incubated in a ratio of 1:1 with test derivatives in polystyrene 96-well flat-bottom microplates (NUNC, Roskilde, Denmark). Positive growth control (without test derivatives) and negative control (without bacteria) were included. The reference antibiotic was oxytetracycline hydrochloride (Sigma Aldrich, Saint Louis, Mo., USA). The microplates were incubated in an EnVision microplate reader (Perkin-Elmer, Turku, Finland) placed in an incubator set to 35° C. for 48 h. The MIC value was defined as the lowest concentration of derivative resulting in no bacterial growth as determined by OD600 measurement. All derivatives were tested in three parallels.
(§3) The MIC was determined as explained above with some exceptions; working solutions of test derivatives were prepared from concentrated DMSO stocks stored at room temperature, the density of the bacterial inoculum was increased 40× to 1-1.2×10^6 cells/mL, enterococci were incubated in Brain Heart Infusion broth (BHIB, Difco Laboratories, USA), the microplates were incubated for 24 h, and the derivatives were tested in four parallels.

[2] = system: Corynebacterium glutamicum ATCC 13032; test: MIC assay, antibiotic susceptible reference strain; format: cell-based; details: Corynebacterium glutamicum, ATCC13032, read-out: Antimicrobial activity (MIC) C. g
Method in brief: (§4)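 Broth microdilution followed CLSI M07-A9 with modifications: inoculum ~2.5-3×10^4 cells/mL in Mueller-Hinton broth, mixed 1:1 with test derivative, incubated 48 h at 35 °C. MIC was the lowest concentration giving no growth by OD600, tested in three parallels, with oxytetracycline as reference antibiotic.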

[3] = system: Escherichia coli ATCC 25922; test: MIC assay, antibiotic susceptible reference strain; format: cell-based; details: Escherichia coli, ATCC25922, read-out: Antimicrobial activity (MIC) E. c
Method in brief: as §4

[4] = system: Pseudomonas aeruginosa PA01, DSM 19880 (ATCC 15692); test: MIC assay, antibiotic susceptible reference strain; format: cell-based; details: Pseudomonas aeruginosa, read-out: Antimicrobial activity (MIC) P. a
Method in brief: as §4

[5] = system: Staphylococcus aureus ATCC 9144; test: MIC assay, antibiotic susceptible reference strain; format: cell-based; details: Staphylococcus aureus, ATCC9144, read-out: Antimicrobial activity (MIC) S. a
Method in brief: as §4

E. coli 50639799 = test: MIC, multi-resistant clinical isolate; format: cell-based, Escherichia coli
Description: as §1, §2, §3

E. coli 50857972 = test: MIC, multi-resistant clinical isolate; format: cell-based, Escherichia coli
Description: as §1, §2, §3

E. faecium TUH50-22 = test: MIC, multi-resistant clinical isolate; format: cell-based, Enterococcus faecium
Description: as §1, §2, §3

E. faecium K36-18 = test: MIC, multi-resistant clinical isolate; format: cell-based, Enterococcus faecium
Description: as §1, §2, §3

E. faecium 50673722 = test: MIC, multi-resistant clinical isolate; format: cell-based, Enterococcus faecium
Description: as §1, §2, §3

E. faecium 50758899 = test: MIC, multi-resistant clinical isolate; format: cell-based, Enterococcus faecium
Description: as §1, §2, §3

E. faecium 50901530 = test: MIC, multi-resistant clinical isolate; format: cell-based, Enterococcus faecium
Description: as §1, §2, §3

P. aeruginosa K44-24 = test: MIC, multi-resistant clinical isolate; format: cell-based, Pseudomonas aeruginosa
Description: as §1, §2, §3

P. aeruginosa 50692520 = test: MIC, multi-resistant clinical isolate; format: cell-based, Pseudomonas aeruginosa
Description: as §1, §2, §3

P. aeruginosa 50692172 = test: MIC, multi-resistant clinical isolate; format: cell-based, Pseudomonas aeruginosa
Description: as §1, §2, §3

P. aeruginosa K34-73 = test: MIC, multi-resistant clinical isolate; format: cell-based, Pseudomonas aeruginosa; details: P. aeruginosa K34-73
Description: as §1, §2, §3

P. aeruginosa K34-7 = test: MIC, multi-resistant clinical isolate; format: cell-based, Pseudomonas aeruginosa
Description: as §1, §2, §3

S. epidermidis = test: Anti-biofilm activity (inhibition of biofilm formation); format: cell-based; details: Staphylococcus epidermidis, read-out: Anti-biofilm IC50
K. pneumoniae K47-25 = test: MIC, multi-resistant clinical isolate; format: cell-based, Klebsiella pneumoniae; details: K. pneumoniae K47-25, resistant to colistin
Description: as §1, §2, §3

K. pneumoniae K66-45 = test: MIC, multi-resistant clinical isolate; format: cell-based, Klebsiella pneumoniae
Description: as §1, §2, §3

K. pneumoniae 50531633 = test: MIC, multi-resistant clinical isolate; format: cell-based, Klebsiella pneumoniae; details: K. pneumoniae 50531633, resistant to colistin
Description: as §1, §2, §3

K. pneumoniae 50667959 = test: MIC, multi-resistant clinical isolate; format: cell-based, Klebsiella pneumoniae
Description: as §1, §2, §3

K. pneumoniae 50625602 = test: MIC, multi-resistant clinical isolate; format: cell-based, Klebsiella pneumoniae
Description: as §1, §2, §3

[6] = Escherichia coli, read-out: Antimicrobial activity (MIC)
[7] = Enterococcus faecium, read-out: Antimicrobial activity (MIC)
[8] = Pseudomonas aeruginosa, read-out: Antimicrobial activity (MIC)
[9] = Klebsiella pneumoniae, read-out: Antimicrobial activity (MIC)

N=C(N)NCCCCN1C(=O)N(CCCCNC(=N)N)C(=O)C(Cc2ccc3ccccc3c2)(Cc2ccc3ccccc3c2)C1=O [8(iv), 1,1′-(4,4′-(5,5-bis(naphthalen-2-ylmethyl)-2,4,6-trioxodihydropyrimidine-1,3(2H,4H)-diyl)bis(butane-4,1-diyl))-diguanidine]
0.25 µg/mL: MIC [2]
(4): selectivity index (EC50/MIC) (P. aeruginosa K44-24; RBC EC50 / MIC) | selectivity index (EC50/MIC) (P. aeruginosa 50692520; RBC EC50 / MIC) | selectivity index (EC50/MIC) (P. aeruginosa 50692172; RBC EC50 / MIC) | selectivity index (EC50/MIC) (P. aeruginosa K34-73; RBC EC50 / MIC) | selectivity index (EC50/MIC) (P. aeruginosa K34-7; RBC EC50 / MIC, P. aeruginosa K34-7)
1 µg/mL: MIC [3] | MIC [5] | IC50 (S. epidermidis)
32 µg/mL: MIC (P. aeruginosa K44-24; Pseudomonas aeruginosa, K4424, read-out: Antimicrobial activity (MIC)) | MIC (P. aeruginosa 50692520; [8]) | MIC (P. aeruginosa 50692172; [8]) | MIC (P. aeruginosa K34-73; Pseudomonas aeruginosa, K3473, read-out: Antimicrobial activity (MIC)) | MIC (P. aeruginosa K34-7; Pseudomonas aeruginosa, K347, read-out: Antimicrobial activity (MIC))
(17): selectivity index (EC50/MIC) (E. coli 50639799; RBC EC50 / MIC) | selectivity index (EC50/MIC) (E. coli 50857972; RBC EC50 / MIC) | selectivity index (EC50/MIC) (E. faecium TUH50-22; RBC EC50 / MIC) | selectivity index (EC50/MIC) (E. faecium 50901530; RBC EC50 / MIC)
8 to 16 µg/mL: MIC [1]
8 µg/mL: MIC [4] | MIC (E. coli 50639799; [6]) | MIC (E. coli 50857972; [6]) | MIC (E. faecium TUH50-22; Enterococcus faecium, TUH5022, read-out: Antimicrobial activity (MIC)) | MIC (E. faecium 50901530; [7])
(8): selectivity index (EC50/MIC) (E. faecium K36-18; RBC EC50 / MIC, E. faecium K36-18) | selectivity index (EC50/MIC) (E. faecium 50673722; RBC EC50 / MIC) | selectivity index (EC50/MIC) (E. faecium 50758899; RBC EC50 / MIC) | selectivity index (EC50/MIC) (K. pneumoniae K47-25; RBC EC50 / MIC) | selectivity index (EC50/MIC) (K. pneumoniae K66-45; RBC EC50 / MIC, K. pneumoniae K66-45) | selectivity index (EC50/MIC) (K. pneumoniae 50531633; RBC EC50 / MIC) | selectivity index (EC50/MIC) (K. pneumoniae 50667959; RBC EC50 / MIC) | selectivity index (EC50/MIC) (K. pneumoniae 50625602; RBC EC50 / MIC)
16 µg/mL: MIC (E. faecium K36-18; Enterococcus faecium, K3618, read-out: Antimicrobial activity (MIC)) | MIC (E. faecium 50673722; [7]) | MIC (E. faecium 50758899; [7]) | MIC (K. pneumoniae K47-25; Klebsiella pneumoniae, K4725, 24 h, read-out: Antimicrobial activity (MIC)) | MIC (K. pneumoniae K66-45; Klebsiella pneumoniae, K6645, read-out: Antimicrobial activity (MIC)) | MIC (K. pneumoniae 50531633; Klebsiella pneumoniae, 24 h, read-out: Antimicrobial activity (MIC)) | MIC (K. pneumoniae 50667959; [9]) | MIC (K. pneumoniae 50625602; [9])

— patent US11072588B2, “Barbituric acid derivatives comprising cationic and lipophilic groups” (UNIVERSITETET I TROMSØ—NORGES ARKTISKE UNIVERSITET, priority 2017, dated 2021)
